Patent US10189807B2, “Tetrahydrothiophene-based GABA aminotransferase inactivators” (Northwestern University, priority 2015, dated 2019)
Counter-ions that a name gives are not always drawn. Like-named read-outs stand apart in the source and are kept apart here.

What was measured:
GABA-AT [1] = molecular target: T1, GABA-AT (Sus scrofa (Pig), UniProt P80147); assay: Time-dependent inhibition (inactivation) of GABA-AT, Kitz and Wilson replot; format: biochemical; details: preliminary in vitro results
T1 sequence (P80147 29-500 limits assumed): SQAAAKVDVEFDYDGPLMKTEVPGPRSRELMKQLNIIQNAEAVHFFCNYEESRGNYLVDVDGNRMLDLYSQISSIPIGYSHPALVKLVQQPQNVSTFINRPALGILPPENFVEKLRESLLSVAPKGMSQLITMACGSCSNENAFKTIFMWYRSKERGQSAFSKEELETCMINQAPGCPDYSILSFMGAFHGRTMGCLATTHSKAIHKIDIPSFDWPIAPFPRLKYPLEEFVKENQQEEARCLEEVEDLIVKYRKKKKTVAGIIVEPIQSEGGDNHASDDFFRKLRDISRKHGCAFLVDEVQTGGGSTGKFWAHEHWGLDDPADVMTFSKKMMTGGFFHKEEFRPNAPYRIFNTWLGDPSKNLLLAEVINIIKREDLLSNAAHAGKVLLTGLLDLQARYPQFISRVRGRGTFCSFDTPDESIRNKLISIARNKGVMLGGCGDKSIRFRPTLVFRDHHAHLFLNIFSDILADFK
Procedure: (§1) GABA-AT was isolated and purified from pig brain by a published procedure.
GABA-AT (17.5 μL) was incubated in the presence of varying concentrations of each compound (70 μL final volume) at 25° C. in 50 mM potassium pyrophosphate buffer solution, pH 6.5, containing 5 mM α-ketoglutarate and 1 mM β-mercaptoethanol. […] The relative enzyme activity was determined by normalizing the rate of increasing absorbance at 340 nm to a control. A Kitz and Wilson replot was used to determine the kinetic constants KI and kinact.

infantile spasms = details: multiple-hit rat model of infantile spasms; cited from earlier work
GABA-AT [2] = molecular target: T1, GABA-AT; assay: Inhibition of GABA-AT, coupled assay with SSDH; format: biochemical
Procedure: as §1
Inhibition constants were determined by monitoring GABA-AT activity in the presence of 0-50 mM concentrations of synthesized analogues using a coupled assay with the enzyme succinic semialdehyde dehydrogenase (SSDH). The assay solution consisted of 10 mM GABA, 5 mM α ketoglutarate, 1 mM NADP^+, 5 mM β-mercaptoethanol, and excess SSDH in 50 mM potassium pyrophosphate buffer, pH 8.5. Enzyme activity was determined by observing the change in absorbance at 340 nm at 25° C. IC50 values were obtained using non-linear regression in GraphPad Prism5 software. Subsequent Ki values were determined using the Cheng-Prusoff relationship. (Yung-Chi, C.; Prusoff, W. H. Biochem. Pharmacol. 1973, 22, 3099-3108.)

CYP2C8 = CYP2C8 (Homo sapiens (Human), UniProt P10632); assay: Inhibition of microsomal cytochromes P450: CYP2C8; format: in vitro ADME; details: 10 μM, HLM, paclitaxel substrate, 10 min at 37° C.
CYP2C8, sequence (P10632 whole entry): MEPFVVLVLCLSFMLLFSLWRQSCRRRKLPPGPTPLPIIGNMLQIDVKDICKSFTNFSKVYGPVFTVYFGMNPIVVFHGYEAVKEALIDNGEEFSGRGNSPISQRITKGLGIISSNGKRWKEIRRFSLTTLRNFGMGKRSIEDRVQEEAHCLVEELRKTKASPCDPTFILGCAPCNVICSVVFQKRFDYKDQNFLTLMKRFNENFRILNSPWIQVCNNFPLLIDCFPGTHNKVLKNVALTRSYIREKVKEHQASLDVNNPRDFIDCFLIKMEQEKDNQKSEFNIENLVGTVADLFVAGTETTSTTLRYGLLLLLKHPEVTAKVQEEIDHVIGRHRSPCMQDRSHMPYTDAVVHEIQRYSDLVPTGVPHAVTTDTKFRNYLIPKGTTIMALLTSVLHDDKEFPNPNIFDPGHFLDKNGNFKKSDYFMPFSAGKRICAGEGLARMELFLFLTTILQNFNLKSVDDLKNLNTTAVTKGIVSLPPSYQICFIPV
Procedure: (§2) The experiments were performed by Eurofins Panlabs (Redmond, Wash. 98052, USA). CYP1A inhibition (HLM, phenacetin substrate), CYP2B6 inhibition (HLM, bupropion substrate), CYP2C8 inhibition (HLM, paclitaxel substrate), CYP2C9 inhibition (HLM, diclofenac substrate), CYP2C19 inhibition (HLM, omeprazole substrate), CYP2D6 inhibition (HLM, dextromethorphan substrate), and CYP3A inhibition (HLM, midazolam and testosterone substrates) were tested. The test concentration was 10 μM. The incubation time was 10 min at 37° C. The detection method was by HPLC-MS/MS. The experiments were duplicated, and the % inhibition of the control values was averaged (FIG. 10).

CYP2D6 = CYP2D6 (Homo sapiens (Human), UniProt P10635); assay: Inhibition of microsomal cytochromes P450: CYP2D6; format: in vitro ADME; details: 10 μM, HLM, dextromethorphan substrate, 10 min at 37° C.
CYP2D6, sequence (P10635 whole entry): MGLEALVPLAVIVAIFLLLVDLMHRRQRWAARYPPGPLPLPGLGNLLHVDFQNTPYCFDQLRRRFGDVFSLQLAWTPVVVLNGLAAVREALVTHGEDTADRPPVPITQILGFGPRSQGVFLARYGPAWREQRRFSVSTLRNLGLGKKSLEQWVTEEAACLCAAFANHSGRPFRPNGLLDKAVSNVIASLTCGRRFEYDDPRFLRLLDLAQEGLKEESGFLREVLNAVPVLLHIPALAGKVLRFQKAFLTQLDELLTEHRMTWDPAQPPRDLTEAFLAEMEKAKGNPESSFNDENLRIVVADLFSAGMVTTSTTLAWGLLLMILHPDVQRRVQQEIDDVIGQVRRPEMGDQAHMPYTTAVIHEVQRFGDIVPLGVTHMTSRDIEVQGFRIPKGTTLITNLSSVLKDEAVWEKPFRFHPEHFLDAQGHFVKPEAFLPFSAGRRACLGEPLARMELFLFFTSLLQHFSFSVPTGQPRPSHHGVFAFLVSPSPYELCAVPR
Procedure: as §2

CYP3A = assay: Inhibition of microsomal cytochromes P450: CYP3A; format: in vitro ADME, human; details: 10 μM, HLM, midazolam and testosterone substrates, 10 min at 37° C.
Procedure: as §2

hERG channel = hERG channel (Homo sapiens (Human), UniProt Q12809); assay: Inhibition of the hERG channel, automated whole-cell patch clamp; format: cell-based; details: hERG CHO-K1 cell line; 0.1, 1 and 10 μM; 5 min at room temperature
hERG channel, sequence (Q12809 whole entry): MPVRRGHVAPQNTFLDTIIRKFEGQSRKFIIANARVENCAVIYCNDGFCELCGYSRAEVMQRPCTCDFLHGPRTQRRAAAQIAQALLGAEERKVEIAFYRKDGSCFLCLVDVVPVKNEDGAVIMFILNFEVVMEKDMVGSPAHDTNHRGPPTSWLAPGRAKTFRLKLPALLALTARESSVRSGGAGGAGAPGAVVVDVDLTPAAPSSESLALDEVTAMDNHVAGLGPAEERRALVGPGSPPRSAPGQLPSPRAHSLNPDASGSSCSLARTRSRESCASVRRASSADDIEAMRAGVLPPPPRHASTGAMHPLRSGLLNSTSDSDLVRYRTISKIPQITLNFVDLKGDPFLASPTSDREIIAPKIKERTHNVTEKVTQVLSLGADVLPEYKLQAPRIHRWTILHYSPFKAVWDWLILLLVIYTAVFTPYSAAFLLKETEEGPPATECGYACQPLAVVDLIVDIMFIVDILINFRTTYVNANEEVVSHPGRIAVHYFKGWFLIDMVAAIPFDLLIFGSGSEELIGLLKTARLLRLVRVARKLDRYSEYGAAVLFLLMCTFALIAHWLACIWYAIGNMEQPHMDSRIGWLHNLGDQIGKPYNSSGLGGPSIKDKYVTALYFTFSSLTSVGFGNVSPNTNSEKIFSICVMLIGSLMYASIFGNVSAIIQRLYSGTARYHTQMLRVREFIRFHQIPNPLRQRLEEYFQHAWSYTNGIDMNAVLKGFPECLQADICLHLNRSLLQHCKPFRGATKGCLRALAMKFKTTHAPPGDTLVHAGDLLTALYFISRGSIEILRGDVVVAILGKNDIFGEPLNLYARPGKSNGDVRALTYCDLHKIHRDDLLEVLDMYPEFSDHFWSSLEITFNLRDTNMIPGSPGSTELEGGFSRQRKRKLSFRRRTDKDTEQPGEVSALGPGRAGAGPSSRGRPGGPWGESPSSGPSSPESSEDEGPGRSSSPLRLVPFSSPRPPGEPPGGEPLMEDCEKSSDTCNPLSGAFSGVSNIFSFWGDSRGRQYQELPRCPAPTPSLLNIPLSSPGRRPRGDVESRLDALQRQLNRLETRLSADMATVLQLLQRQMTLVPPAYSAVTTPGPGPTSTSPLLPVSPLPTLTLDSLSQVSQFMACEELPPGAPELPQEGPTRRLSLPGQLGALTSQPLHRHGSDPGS
Procedure: The experiments were performed by Eurofins Panlabs (Redmond, Wash. 98052, USA). hERG CHO-K1 cell line was used. The test concentrations were 0.1 μM, 1 μM, and 10 μM. The incubation time was 5 min at room temperature, cumulatively. The detection method used an automated whole-cell patch clamp. The experiments were duplicated, and the % inhibition of the tail current was averaged (FIG. 9).

CYP1A = CYP1A (Homo sapiens (Human), UniProt P05177); assay: Inhibition of microsomal cytochromes P450: CYP1A; format: in vitro ADME; details: 10 μM, HLM, phenacetin substrate, 10 min at 37° C.
CYP1A, sequence (P05177 whole entry): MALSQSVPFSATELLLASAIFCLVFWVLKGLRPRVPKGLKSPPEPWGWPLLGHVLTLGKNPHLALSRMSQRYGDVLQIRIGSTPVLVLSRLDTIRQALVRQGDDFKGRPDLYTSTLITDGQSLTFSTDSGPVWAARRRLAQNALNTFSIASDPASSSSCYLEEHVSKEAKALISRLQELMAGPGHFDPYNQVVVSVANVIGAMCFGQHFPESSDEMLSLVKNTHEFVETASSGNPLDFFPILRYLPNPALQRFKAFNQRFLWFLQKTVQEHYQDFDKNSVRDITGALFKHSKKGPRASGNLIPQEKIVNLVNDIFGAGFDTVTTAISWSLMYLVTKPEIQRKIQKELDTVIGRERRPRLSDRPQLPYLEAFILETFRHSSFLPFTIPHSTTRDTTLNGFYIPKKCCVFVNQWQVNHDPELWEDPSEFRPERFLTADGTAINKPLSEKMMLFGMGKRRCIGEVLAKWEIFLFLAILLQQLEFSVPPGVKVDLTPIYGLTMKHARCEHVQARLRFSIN
Procedure: as §2

CYP2B6 = CYP2B6 (Homo sapiens (Human), UniProt P20813); assay: Inhibition of microsomal cytochromes P450: CYP2B6; format: in vitro ADME; details: 10 μM, HLM, bupropion substrate, 10 min at 37° C.
CYP2B6, sequence (P20813 whole entry): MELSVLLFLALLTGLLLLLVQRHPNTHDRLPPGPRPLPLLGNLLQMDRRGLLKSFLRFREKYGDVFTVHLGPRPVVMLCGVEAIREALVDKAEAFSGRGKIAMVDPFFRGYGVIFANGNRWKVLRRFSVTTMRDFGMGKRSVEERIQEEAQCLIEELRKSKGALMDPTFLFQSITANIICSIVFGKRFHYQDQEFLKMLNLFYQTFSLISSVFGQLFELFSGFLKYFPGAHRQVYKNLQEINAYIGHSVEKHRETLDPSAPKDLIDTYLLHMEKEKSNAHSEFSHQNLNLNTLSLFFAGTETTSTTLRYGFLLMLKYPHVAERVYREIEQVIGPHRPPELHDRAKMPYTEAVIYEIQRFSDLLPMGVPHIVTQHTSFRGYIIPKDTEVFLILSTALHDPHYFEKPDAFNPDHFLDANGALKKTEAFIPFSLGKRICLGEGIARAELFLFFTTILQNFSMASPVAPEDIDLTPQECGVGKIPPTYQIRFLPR
Procedure: as §2

CYP2C9 = CYP2C9 (Homo sapiens (Human), UniProt P11712); assay: Inhibition of microsomal cytochromes P450: CYP2C9; format: in vitro ADME; details: 10 μM, HLM, diclofenac substrate, 10 min at 37° C.
CYP2C9, sequence (P11712 whole entry): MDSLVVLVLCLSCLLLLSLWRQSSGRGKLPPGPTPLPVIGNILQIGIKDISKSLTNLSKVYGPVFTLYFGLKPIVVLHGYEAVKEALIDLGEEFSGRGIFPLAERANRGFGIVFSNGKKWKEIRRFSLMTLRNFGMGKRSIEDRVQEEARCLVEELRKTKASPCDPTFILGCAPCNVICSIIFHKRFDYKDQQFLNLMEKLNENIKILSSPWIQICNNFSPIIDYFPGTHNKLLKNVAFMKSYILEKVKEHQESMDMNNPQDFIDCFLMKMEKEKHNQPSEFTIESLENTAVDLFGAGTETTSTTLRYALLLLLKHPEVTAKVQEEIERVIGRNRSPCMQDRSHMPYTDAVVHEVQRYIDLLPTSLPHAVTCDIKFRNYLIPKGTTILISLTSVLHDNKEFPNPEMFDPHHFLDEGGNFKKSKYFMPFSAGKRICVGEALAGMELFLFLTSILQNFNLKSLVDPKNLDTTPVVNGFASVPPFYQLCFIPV
Procedure: as §2

[3] = Metabolic stability in human liver microsomes; format: in vitro ADME; details: 0.1 μM, over 60 minutes at 37° C., LC-MS/MS
Procedure: The experiments were performed by Eurofins Panlabs (Redmond, Wash. 98052, USA). The test concentration of 17 was 0.1 μM. […] The detection method was by LC-MS/MS. Imipramine, propranolol, terfenadine, and verapamil were run in similar condition as controls.

Plasma protein binding = format: in vitro ADME
CYP2C19 = CYP2C19 (Homo sapiens (Human), UniProt P33261); assay: Inhibition of microsomal cytochromes P450: CYP2C19; format: in vitro ADME; details: 10 μM, HLM, omeprazole substrate, 10 min at 37° C.
CYP2C19, sequence (P33261 whole entry): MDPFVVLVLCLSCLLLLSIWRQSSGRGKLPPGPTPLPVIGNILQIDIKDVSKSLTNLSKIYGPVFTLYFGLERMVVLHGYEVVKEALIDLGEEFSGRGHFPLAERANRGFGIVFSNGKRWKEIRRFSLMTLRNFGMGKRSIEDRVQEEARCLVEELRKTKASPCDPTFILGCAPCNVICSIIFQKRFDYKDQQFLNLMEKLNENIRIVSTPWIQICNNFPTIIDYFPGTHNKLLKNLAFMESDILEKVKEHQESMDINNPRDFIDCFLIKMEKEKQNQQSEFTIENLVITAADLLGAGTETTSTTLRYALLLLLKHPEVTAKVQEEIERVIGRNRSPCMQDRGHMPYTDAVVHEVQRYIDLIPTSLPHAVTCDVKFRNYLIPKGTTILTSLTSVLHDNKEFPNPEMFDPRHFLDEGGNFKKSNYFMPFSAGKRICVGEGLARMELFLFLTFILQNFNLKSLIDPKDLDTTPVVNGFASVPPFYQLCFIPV
Procedure: as §2

GABA-AT [4] = details: prior art; cited from earlier work
[5] = test system: aspartate aminotransferase; details: off-target enzyme; cited from earlier work
[6] = competitive inhibition, read-out: Ki (competitive inhibitor of GABA-AT)

Q: With Cl.N[C@@H]1CS[C@@H](C(=O)O)C1 [Compound 18, (2R,4S)-4-Aminotetrahydrothiophene-2-carboxylic acid hydrochloride] as the compound, how does the “Inactivation of GABA-AT (in words)” value (GABA-AT [1]) read?
A: potent inactivators

Q: For C=CC(N)CCC(=O)O (stereo not drawn) [vigabatrin], which “Duration of effective spasms suppression” value (infantile spasms) is on record?
A: 1 days

Q: Which Ki (GABA-AT [2]; pH 8.5, 25° C., from IC50 by Cheng-Prusoff, read-out: Ki (reversible inhibition)) does the source give for N[C@@H]1CC(C(=O)O)S(=O)(=O)C1 (stereo partly drawn) [Compound 22] here?
A: 7.5 ± 0.7 mM

Q: For N[C@@H]1CN[C@H](C(=O)O)C1 [Compound 41, (2S,4S)-4-aminopyrrolidine-2-carboxylic acid], which Ki (GABA-AT [2]; [6]) is on record?
A: 1.3 mM

Q: For “mixture of (2S,4S)-4-aminotetrahydrofuran-2-carboxylic acid (40) and (2R,4R)-4-aminotetrahydrofuran-2-carboxylic acid (51) [mixture of enantiomers 40 and 51]”, which Ki (GABA-AT [2]; [6]) is on record?
A: 0.43 mM

Q: With Cl.N[C@@H]1CS[C@H](C(=O)O)C1 [Compound 17, (2S,4S)-4-Aminotetrahydrothiophene-2-carboxylic acid hydrochloride] as the compound, how does the CYP2C8 inhibition (CYP2C8) read?
A: did not inhibit or induce

Q: And the CYP2D6 inhibition (CYP2D6)?
A: did not inhibit or induce

Q: And the CYP3A inhibition (CYP3A)?
A: did not inhibit or induce

Q: What about the “Inhibition of the hERG channel” value (hERG channel) of the same compound?
A: did not inhibit

Q: What about the CYP1A inhibition (CYP1A) of the same compound?
A: did not inhibit or induce

Q: What about the CYP2B6 inhibition (CYP2B6) of the same compound?
A: did not inhibit or induce

Q: What about the CYP2C9 inhibition (CYP2C9) of the same compound?
A: did not inhibit or induce

Q: And the “metabolized in HLM” value [3]?
A: less than 20%

Q: What about the fraction unbound (Plasma protein binding) of the same compound?
A: 0.74

Q: What about the CYP2C19 inhibition (CYP2C19) of the same compound?
A: did not inhibit or induce

Q: What about the “Inactivation of GABA-AT (in words)” value (GABA-AT [1]) of the same compound?
A: potent inactivators

Q: For N[C@@H]1CC[C@H](C(=O)O)C1 [Compound 39, (1S,3R)-3-aminocyclopentane-1-carboxylic acid], which Ki (GABA-AT [2]; [6]) is on record?
A: 0.87 mM

Q: And the “Inactivation of GABA-AT (in words)” value (GABA-AT [1])?
A: not an inactivator

Q: With N[C@H]1CC(C(=O)O)S(=O)(=O)C1 (mixture of isomers) [Compound 19, (4S)-4-Aminotetrahydrothiophene-2-carboxylic acid 1,1-dioxide hydrochloride] as the compound, how does the Ki (GABA-AT [2]; read-out: Ki (reversible inhibition)) read?
A: 3.2 ± 0.7 mM

Q: Which “Potency/inactivation of GABA-AT (in words)” value (GABA-AT [4]) does the source give for N[C@H]1C=C(C(=O)O)SC1 [(S)-4-Amino-4,5-dihydro-2-thiophenecarboxylic acid] here?
A: known inactivator

Q: What about the “Inactivation or inhibition of aspartate aminotransferase” value [5] of the same compound?
A: inactivator
